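Five compound concentrations were applied to cells in 96-well plates for 48 hours; endpoints were derived by simple linear interpolation of the resulting dose-response curve. GI50 is the concentration that inhibits growth by half.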 Calls of active or inactive are those of the source. No stated cut-off is given here; in the data, active = GI50 up to about 1.1 µM and inactive = higher.
Experiments:
Assay in all cases: NCI tumour cell line growth inhibition, 48 h
HT-29 = test system: HT-29
SK-OV-3 = test system: SK-OV-3
SN12C = test system: SN12C
COLO 205 = test system: COLO 205
PC-3 = test system: PC-3
HCT-15 = test system: HCT-15
NCI-H226 = test system: NCI-H226
NCI-H460 = test system: NCI-H460
OVCAR-3 = test system: OVCAR-3
UACC-62 = test system: UACC-62
SK-MEL-5 = test system: SK-MEL-5
SR = test system: SR
A549 = test system: A549
HL-60 = test system: HL-60
SK-MEL-28 = test system: SK-MEL-28
NCI/ADR-RES = test system: NCI/ADR-RES
OVCAR-5 = test system: OVCAR-5
U-251 = test system: U-251
CCRF-CEM = test system: CCRF-CEM
CAKI-1 = test system: CAKI-1

| SMILES | GI50 (HT-29) | GI50 (SK-OV-3) | GI50 (SN12C) | GI50 (COLO 205) | GI50 (PC-3) | GI50 (HCT-15) | GI50 (NCI-H226) | GI50 (NCI-H460) | GI50 (OVCAR-3) | GI50 (UACC-62) | GI50 (SK-MEL-5) | GI50 (SR) | GI50 (A549) | GI50 (HL-60) | GI50 (SK-MEL-28) | GI50 (NCI/ADR-RES) | GI50 (OVCAR-5) | GI50 (U-251) | GI50 (CCRF-CEM) | GI50 (CAKI-1) |
| --- | --- | --- | --- | --- | --- | --- | --- | --- | --- | --- | --- | --- | --- | --- | --- | --- | --- | --- | --- | --- |
| COC(=O)C(CCC(=O)CCl)N1C(=O)c2ccccc2C1=O (stereo not given) | 9.64 µM (inactive) | 16 µM (inactive) | 10.5 µM (inactive) | 15.6 µM (inactive) | 12.9 µM (inactive) | 4.25 µM | 18.7 µM (inactive) | 12.2 µM (inactive) | 11.6 µM (inactive) | 10.8 µM (inactive) | 4.95 µM (inactive) | 3.39 µM (inactive) | 17.7 µM (inactive) | 2.53 µM (inactive) | 10.7 µM (inactive) | 9.42 µM (inactive) | 15.9 µM (inactive) | 14.4 µM (inactive) | 1.67 µM (inactive) | 15.2 µM (inactive) |
| Cc1cc(CN(Cc2ccccc2)Cc2nc3ccccc3[nH]2)c(O)c(CN(Cc2nc3ccccc3[nH]2)Cc2nc3ccccc3[nH]2)c1 | 4.11 µM (inactive) | 5.55 µM (inactive) | 8.41 µM (inactive) | 19.8 µM (inactive) | 12.4 µM (inactive) | 2.81 µM | 3.42 µM (inactive) | 3.94 µM (inactive) | 6.5 µM (inactive) | 3.56 µM (inactive) | 6.73 µM (inactive) | 2.6 µM (inactive) | 8.79 µM (inactive) | 2.16 µM (inactive) | 26.2 µM (inactive) | 5.06 µM (inactive) | 15.2 µM (inactive) | 13 µM (inactive) | 2.81 µM (inactive) | 8.69 µM (inactive) |
| C=CCN1C(=O)/C(=C\c2cc(C(C)(C)C)c(O)c(C(C)(C)C)c2)NC1=S | 17.3 µM (inactive) | 34.1 µM (inactive) | 23.1 µM (inactive) | 16.9 µM (inactive) | 14.2 µM (inactive) | 22.2 µM | 29.3 µM (inactive) | 15.3 µM (inactive) | 12.1 µM (inactive) | 15.8 µM (inactive) | 15.9 µM (inactive) | 21.1 µM (inactive) | 24.3 µM (inactive) | 0.239 µM (active) | 30.6 µM (inactive) | 23.9 µM (inactive) | 31.3 µM (inactive) | 14.3 µM (inactive) | 0.879 µM (active) | 22.3 µM (inactive) |
| NC(=O)c1ncn(C2OC(CO)C(O)C2O)c1NC=O (stereo not given) | > 100 µM (inactive) | > 100 µM (inactive) | > 100 µM (inactive) | > 100 µM (inactive) | > 100 µM (inactive) | > 100 µM | > 100 µM (inactive) | > 100 µM (inactive) | > 100 µM (inactive) | > 100 µM (inactive) | > 100 µM (inactive) | > 100 µM (inactive) | > 100 µM (inactive) | > 100 µM (inactive) | > 100 µM (inactive) | > 100 µM (inactive) | > 100 µM (inactive) | > 100 µM (inactive) | > 100 µM (inactive) | > 100 µM (inactive) |
| C[N+](C)(C)C(Cc1c[nH]c(=S)[nH]1)C(=O)O (stereo not given) | > 100 µM (inactive) | > 100 µM (inactive) | > 100 µM (inactive) | > 100 µM (inactive) | > 100 µM (inactive) | > 100 µM | > 100 µM (inactive) | > 100 µM (inactive) | > 100 µM (inactive) | > 100 µM (inactive) | > 100 µM (inactive) | > 100 µM (inactive) | > 100 µM (inactive) | > 100 µM (inactive) | > 100 µM (inactive) | > 100 µM (inactive) | > 100 µM (inactive) | > 100 µM (inactive) | > 100 µM (inactive) | > 100 µM (inactive) |
| O=[N+]([O-])c1ccc(C(Nc2ccccc2)c2ccc3cccnc3c2O)cc1 (stereo not given) | 7.08 µM (inactive) | 23.8 µM (inactive) | 7.94 µM (inactive) | 12.2 µM (inactive) | 10.8 µM (inactive) | 4.26 µM | 3.78 µM (inactive) | 3.24 µM (inactive) | 4.02 µM (inactive) | 12.9 µM (inactive) | 7.18 µM (inactive) | 0.474 µM (active) | 8.04 µM (inactive) | 3.37 µM (inactive) | 40.6 µM (inactive) | 3.67 µM (inactive) | 8.2 µM (inactive) | 3.55 µM (inactive) | 2.17 µM (inactive) | 6.25 µM (inactive) |
